Tests used:
[1] = system: HCC1806; assay: CelltiterGlo viability cell assay; type: cell-based; conditions: HCC1806, 6 day
In short: (§1)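 CelltiterGlo luminescence, day 3 and day 6 readouts; compound 0.01–30 μM; data normalized to DMSO; n=3 biological replicates ± SEM.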

[2] = system: MDA-MB-436; assay: CelltiterGlo viability cell assay; type: cell-based
In short: as §1

## COc1cc(OC)cc(-c2noc(N3CCN(C)C4(CCN(c5ccccc5)CC4)C3)n2)c1 [MRK-740N]
[1]; 0.03 uM
  viability Average: 104.14
  viability Replicate 1: 102.41
  viability Replicate 2: 102.60
  viability Replicate 3: 107.42
[1]; 0.1 uM
  viability Average: 107.97
  viability Replicate 1: 107.96
  viability Replicate 2: 108.22
  viability Replicate 3: 107.74
[1]; 0.3 uM
  viability Average: 112.99
  viability Replicate 1: 109.14
  viability Replicate 2: 116.56
  viability Replicate 3: 113.26
[1]; 1 uM
  viability Average: 115.10
  viability Replicate 1: 111.79
  viability Replicate 2: 117.79
  viability Replicate 3: 115.71
[1]; 3 uM
  viability Average: 114.65
  viability Replicate 1: 112.70
  viability Replicate 2: 114.15
  viability Replicate 3: 117.09
[1]; 9.5 uM
  viability Average: 110.91
  viability Replicate 1: 107.82
  viability Replicate 2: 111.79
  viability Replicate 3: 113.11
[1]; 30 uM
  viability Average: 35.99
  viability Replicate 1: 27.63
  viability Replicate 2: 38.19
  viability Replicate 3: 42.14
[2]; MDA MB436, 3 day, 0.01 uM
  viability Average: 104.47
  viability Replicate 1: 104.85
  viability Replicate 2: 108.92
  viability Replicate 3: 99.63
[2]; MDA MB436, 3 day, 0.03 uM
  viability Average: 103.60
  viability Replicate 1: 101.98
  viability Replicate 2: 106.92
  viability Replicate 3: 101.91
[2]; MDA MB436, 3 day, 0.1 uM
  viability Average: 104.90
  viability Replicate 1: 108.03
  viability Replicate 2: 99.50
  viability Replicate 3: 107.16
[2]; MDA MB436, 3 day, 0.3 uM
  viability Average: 109.23
  viability Replicate 1: 113.13
  viability Replicate 2: 103.55
  viability Replicate 3: 111.02
[2]; MDA MB436, 3 day, 1 uM
  viability Average: 109.50
  viability Replicate 1: 114.19
  viability Replicate 2: 107.46
  viability Replicate 3: 106.85
[2]; MDA MB436, 3 day, 3 uM
  viability Average: 108.81
  viability Replicate 1: 105.69
  viability Replicate 2: 108.01
  viability Replicate 3: 112.73
[2]; MDA MB436, 3 day, 9.5 uM
  viability Average: 105.69
  viability Replicate 1: 111.14
  viability Replicate 2: 101.16
  viability Replicate 3: 104.77
[2]; MDA MB436, 3 day, 30 uM
  viability Average: 65.33
  viability Replicate 1: 67.81
  viability Replicate 2: 62.64
  viability Replicate 3: 65.53
[2]; MDA MB436, 6 day, 0.01 uM
  viability Average: 103.60
  viability Replicate 1: 113.45
  viability Replicate 2: 100.02
  viability Replicate 3: 97.33
[2]; MDA MB436, 6 day, 0.03 uM
  viability Average: 104.88
  viability Replicate 1: 112.01
  viability Replicate 2: 99.73
  viability Replicate 3: 102.91
[2]; MDA MB436, 6 day, 0.1 uM
  viability Average: 102.74
  viability Replicate 1: 107.88
  viability Replicate 2: 92.08
  viability Replicate 3: 108.25
[2]; MDA MB436, 6 day, 0.3 uM
  viability Average: 105.71
  viability Replicate 1: 111.04
  viability Replicate 2: 94.90
  viability Replicate 3: 111.19
[2]; MDA MB436, 6 day, 1 uM
  viability Average: 105.76
  viability Replicate 1: 115.22
  viability Replicate 2: 95.99
  viability Replicate 3: 106.08
[2]; MDA MB436, 6 day, 3 uM
  viability Average: 103.68
  viability Replicate 1: 104.50
  viability Replicate 2: 94.30
  viability Replicate 3: 112.23
[2]; MDA MB436, 6 day, 9.5 uM
  viability Average: 88.40
  viability Replicate 1: 98.62
  viability Replicate 2: 74.13
  viability Replicate 3: 92.44
[2]; MDA MB436, 6 day, 30 uM
  viability Average: 37.17
  viability Replicate 1: 41.30
  viability Replicate 2: 30.92
  viability Replicate 3: 39.29
